Experimental findings from US4016158A, “Cephalosporin derivatives” (Roussel-UCLAF, priority 1971, dated 1977) are described below.

Values after ≈ are worked out from the molar mass of the structure shown.

What all share (assay type): cell-based
The subject of one assay is Escherichia coli 4965. Description: bactericidal activity (germs still alive). The arrangement: key: +++: all the germs are still alive; +: it remains some colonies; -: it does not remain any germ. The procedure: (§1) The bactericidal activity of product A was ascertained by determining the number of germs still alive after treatment with increasing doses of antibiotic on a liquid media. From the cultures in tubes having 72 hours (previously described method), were placed on agar in Petri dishes a constant sample of the last tube having grown and of the following tubes where no more growth in transillumination is observed. After 48 hours of culture in the Petri dishes, the number of colonies was ascertained.

Assay [1] concerns Diplococcus pneumoniae 735. Description: bactericidal activity (germs still alive). Also noted: key: +++: all the germs are still alive; +: it remains some colonies; -: it does not remain any germ. The procedure:
as §1

For assay [2], the system named is Streptococcus hemolyticus 905. The assay is described as follows: bactericidal activity (germs still alive). The arrangement: key: +++: all the germs are still alive; +: it remains some colonies; -: it does not remain any germ. The procedure:
as §1

The test system of a further assay is Escherichia coli 070. The assay is described as follows: bactericidal activity (germs still alive). Also noted: key: +++: all the germs are still alive; +: it remains some colonies; -: it does not remain any germ. The procedure:
as §1

In assay [3] the test system is Streptococcus hemolyticus 920. The assay is described as follows: bactericidal activity (germs still alive). The arrangement: key: +++: all the germs are still alive; +: it remains some colonies; -: it does not remain any germ. How it is done: as §1
Another assay has as its system Escher. Coli UC 1261. The assay is described as follows: MIC, diffusion method in gelose medium at pH 7 (Table I). The conditions noted are these: Escherichia coli, UC1261; Escher. Coli UC 1261, pH 7; read-out: minimum concentration of inhibition. How it is done:
(§2) The antibiotic activity was determined by the diffusion method in a gelose medium at a pH of 7. The following Table expresses the minimum concentration of inhibition in mcg/ml (CMl) for the products against different microbial strains.

A further assay has as its system Escher. Coli UC 1020. The description is as above. The note with it: Escherichia coli, UC1020; Escher. Coli UC 1020, pH 7; read-out: minimum concentration of inhibition. The procedure:
as §2

In a further assay the test system is Pseudomonas. The description is as above. The note with it: read-out: minimum concentration of inhibition. How it is done: as §2
In assay [4] the test system is Staph. aureus oxford U.C. 1061 P(+). Described as above. The conditions noted are these: Staphylococcus aureus, UC1061; Staph. aureus oxford UC 1061, penicillin sensitive, pH 7; read-out: minimum concentration of inhibition. How it is done: as §2
The subject of a further assay is Staph. U.C. 1128 P(-). The assay is described as above. The note with it: Staph. UC 1128, penicillin resistant, read-out: minimum concentration of inhibition. How it is done: as §2
Another assay deals with Strept. Fecalis 5432. Described as above. The conditions noted are these: Strept. Fecalis 5432, pH 7; read-out: minimum concentration of inhibition. The procedure: as §2

As to `CC(C)C1=C(C(=O)O)N2C(=O)[C@@H](NC(=O)[C@H](N)c3ccccc3)[C@H]2SC1` [Example 9, L (+) cis 7-[D (-)-α-aminophenylacetamido]-3-isopropyl-3-cepheme-4-carboxylic acid], the germs still alive entry is given as “+++” in the assay with Escherichia coli 4965 (30 μg/ml); “-” in the assay on Escherichia coli 4965 (40 μg/ml); “+++” in [1] (1 μg/ml); “-” in assay [1] (2 μg/ml); “-” in assay [1] (3 μg/ml); “+++” in assay [2] (1 μg/ml). Moreover, the germs still alive result in [2] (2 μg/ml) is listed as “-”; in assay [2] (3 μg/ml), “-”; in the assay with Escherichia coli 070 (30 μg/ml), “+++”; in the assay on Escherichia coli 070 (40 μg/ml) it was “-”; in assay [3] (2 μg/ml), “+++”; in assay [3] (3 μg/ml), “-”. In addition, the MIC in the assay with Escher. Coli UC 1261 is 40 to 100 µg/mL (≈ 107 to 266 µM); in the assay on Escher. Coli UC 1020 it was 100 µg/mL (≈ 266 µM); in the assay on Pseudomonas, above 100 µg/mL; in assay [4] it was 0.4 µg/mL (≈ 1.07 µM); in the assay with Staph. U.C. 1128 P(-), 2 µg/mL (≈ 5.33 µM); in the assay with Strept. Fecalis 5432, 20 µg/mL (≈ 53.3 µM).
